Measured values reported in publication PMC7381729, “A new class of PentixaFor- and PentixaTher-based theranostic agents with enhanced CXCR4-targeting efficiency” (Theranostics, 2020).
Read-outs that look alike come from different tables or passages of the source. One block for each compound: values may come before it. Where a SMILES comes first, the peptide text is derived from it. Side-chain parts run from the residue outwards. [ ]: non-standard residue; d: D form. The star is where a group is joined. DOTA = O=C(O)CN1CCN(CC(=O)O)CCN(CC(=O)*)CCN(CC(=O)O)CC1; dTyr(3-I) = N[C@H](Cc1ccc(O)c(I)c1)C(=O)O; 2Nal = N[C@@H](Cc1ccc2ccccc2c1)C(=O)O; dNMeOrn = CN[C@H](CCCN)C(=O)O; 4Amb = NCc1ccc(C(=O)O)cc1; 4Abz = Nc1ccc(C(=O)O)cc1

Experiments:
[1] = Small animal PET imaging in Daudi xenograft bearing mice; type: in vivo; conditions: CB17 SCID, mouse, iv, total radioactivity, 90 min p.i., dynamic PET, ROI analysis, n=1 per compound
Procedure: (§1) Small aminal PET imaging studies were performed using a Siemens Inveon PET scanner. Animals were anesthetized with isoflurane and injected via the tail vein with 10 to 15 MBq (0.1 nmol) of the respective tracer. Dynamic imaging (n=1 per compound) was performed after on-bed injection for 1.5 h, and static images (n=1 per compound) were acquired at 1 h p.i. with an acquisition time of 15 min. Data analysis was performed using the Inveon Research Workplace software. Images were reconstructed using a 3D ordered-subsets expectation maximum (OSEM3D) algorithm without scanner and attenuation correction. Time-activity curves (Figure 4) were obtained by generating isocontour regions of interest (ROI) for the tumor and the heart content (as a surrogate for blood activity), as well as by defining two spherical ROIs (each 23.4 mm^3) in the thigh area (muscle) and areas of homogenous tracer uptake in the liver, followed by plotting of average activity ± SD per volume in these ROIs over time.  Figure 4 Results from small animal PET imaging using [^68Ga]PentixaFor (top row), [^68Ga]DOTA-r-a-ABA-CPCR4 (middle row) and [^68Ga]DOTA-r-a-ABA-iodoCPCR4 (bottom row) in Daudi xenograft bearing CB17 SCID mice. Images on the left (MIP) were obtained by static imaging (1h p.i., n=1), the time activity curves (TAC) on the right were acquired by dynamic PET imaging (0-90 min p.i., n=1).

[2] = tested on: Daudi xenograft bearing CB17 SCID mice; test: as above; type: in vivo; conditions: mouse, in vivo
Procedure: as §1

[3] = Lipophilicity, modified shake-flask method; type: physicochemical; conditions: O/PBS, radiolabeled compound, means ± SD (n=6)
Procedure: The lipophilicity (log PO/PBS) of the ^68Ga- and ^177Lu-labeled compounds in this study was determined via a modified shake-flask method.

[4] = tested on: Daudi (human B-cell lymphoma) xenograft bearing CB-17 SCID mice; test: Biodistribution in Daudi xenograft bearing mice; type: in vivo, mouse
Outline: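 Female CB-17 SCID mice with Daudi xenografts (n=4-5) received 5-10 MBq (0.08-0.11 nmol) ^68Ga- or ^177Lu-labelled ligand i.v.; blocking by coinjected 50 µg AMD3100. Organs counted by γ-counter at 1, 6 and 48 h p.i.; %ID/g (mean ± SD).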

[5] = In vivo metabolite analysis (radio-HPLC); set-up: species or system mouse; conditions: CB17 SCID mice, 0.5h p.i., i.v. app. 35 MBq; radio-HPLC of extracts
Procedure: 68Ga-labeling was performed as published previously using a 68Ge/68Ga generator (iTHEMBA Labs, South Africa) and a GallElut + synthesis module (SCINTOMICS GmbH, Germany). Usually, 5 nmol of precursor peptide were used, yielding the 68Ga-labeled peptides in specific activities of 100 to 120 […]
For 177Lu-labeling, the peptides were dissolved in water to yield a 1 mM solution. Of this solution, the required volume was added to 177LuCl3 in 0.04 M HCl (ITG/ITM, Garching, Germany; activity concentration: 370 MBq/500 µl) to achieve a peptide-to -177Lu-activity ratio of 1 nmol peptide per 225 MBq 177LuCl3. To this mixture, 1 M NH4OAc was added (calculated to be 10% of total reaction volume), and the mixture was heated to 90°C for 4 0 min. […]
Human glioma U87 cells overexpressing CD4 and CXCR4 (U87CD4CXCR4) cells were kept in cultivation at least one week before starting the experiment. […] Perkin-Elmer’s LANCE cAMP assay kit (catalog #AD0262) based on time-resolved fluorescence resonance energy transfer (TR -FRET) was utilized to determine the ability of [natLu]DOTA -r -a -ABA -iodo CPCR4 and [ natLu]PentixaTher vs the reference CXCL12 to inhibit cAMP production induced by 5 µM Forskolin. […]
(15,000 g), and the supernatants were subjected to ultrafiltration. […] The blood extract was also analyzed by radio-HPLC. For all extracts the ex traction efficiency was determined in a ɣ -counter.

murine CXCR4 (mCXCR4) = molecular target: T1, murine CXCR4 (mCXCR4) (Mus musculus, UniProt P70658); test: Competition binding to mCXCR4, Eµ-myc 1080 mouse lymphoma cells, [125I]CPCR4.3 as radioligand; conditions: Eµ-myc 1080 mouse lymphoma cells 200.000 cells/sample, means ± SD of min. three separate experiments
T1 construct: mCXCR4-expressing Eµ-Myc1080 mouse B-cell lymphoma cells; endogenous in cells; host or cells: Eµ-Myc1080 mouse B-cell lymphoma cells (whole cells)
T1 sequence (P70658 whole entry): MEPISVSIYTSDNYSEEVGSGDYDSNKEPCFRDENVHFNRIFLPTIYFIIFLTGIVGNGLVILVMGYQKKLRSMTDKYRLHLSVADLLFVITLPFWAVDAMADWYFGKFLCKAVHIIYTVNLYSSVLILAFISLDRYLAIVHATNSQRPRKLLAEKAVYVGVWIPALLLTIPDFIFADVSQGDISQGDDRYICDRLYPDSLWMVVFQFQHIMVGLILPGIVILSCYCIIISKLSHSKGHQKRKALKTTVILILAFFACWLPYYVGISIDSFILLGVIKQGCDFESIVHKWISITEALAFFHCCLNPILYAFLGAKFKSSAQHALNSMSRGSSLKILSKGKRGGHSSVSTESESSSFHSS
Procedure: Experiments were performed in triplicate with n=3 per concentration in each experiment. IC50 values were calculated using GraphPad Prism 6.01 (Graph Pad Software, San Diego, USA).

[6] = 1h p.i., tracer only, i.v., γ-counter, means ± SD, n=4-5 (68Ga: n=4)

tissue uptake per volume at 1.5 h ([1]; kidney, read-out: Kidney uptake in PET): 2.7 ± 0.1 %ID/mL
tissue uptake per volume at 1.5 h ([1]; liver, average ± SD per volume in ROI, read-out: Liver uptake in PET): 1.8 ± 0.1 %ID/mL
tissue uptake per volume at 1.5 h ([1]; tumor (Daudi xenograft), Daudi xenograft, read-out: Tumor accumulation in PET): 14.3 ± 1.2 %ID/mL
Time at which tumor uptake plateaus (TAC) [2]: ~20 min p.i.
Compound: CN1C(=O)[C@@H](Cc2ccc(O)cc2)NC(=O)CNC(=O)[C@H](Cc2ccc3ccccc3c2)NC(=O)[C@H](CCCNC(=N)N)NC(=O)[C@H]1CCCNC(=O)c1ccc(CNC(=O)CN2CCN(CC(=O)O)CCN(CC(=O)O)CCN(CC(=O)O)CC2)cc1 [[^68Ga]PentixaFor, cyclo(D-Tyr^1-D-[NMe]Orn^2(AMBS-[^68Ga]DOTA)-Arg^3-Nal^4-Gly^5), metal not drawn, reference compound] (cyclo([dY][dNMeOrn]([4Amb-DOTA])R[2Nal]G))

log PO/PBS [3]: -2.8 ± 0.04
Biodistribution adrenals [4, 6]: 4.54 ± 1.06 %iD/g
Biodistribution blood [4, 6]: 2.90 ± 0.32 %iD/g
Biodistribution colon [4, 6]: 1.19 ± 0.35 %iD/g
Biodistribution femur [4, 6]: 1.92 ± 0.20 %iD/g
Biodistribution heart [4, 6]: 1.87 ± 0.32 %iD/g
Biodistribution kidney [4, 6]: 10.3 ± 0.26 %iD/g
Biodistribution liver [4, 6]: 27.1 ± 1.87 %iD/g
Biodistribution lung [4, 6]: 7.06 ± 0.67 %iD/g
Biodistribution muscle [4, 6]: 0.58 ± 0.07 %iD/g
Biodistribution pancreas [4, 6]: 0.69 ± 0.14 %iD/g
Biodistribution small intestine [4, 6]: 1.44 ± 0.22 %iD/g
Biodistribution spleen [4, 6]: 6.72 ± 0.70 %iD/g
Biodistribution stomach [4, 6]: 1.95 ± 0.17 %iD/g
Biodistribution tumor (Daudi xenograft) [4, 6]: 17.2±2.0 %iD/g
Initial activity retained in the Daudi xenografts after 48h ([4]; 48h p.i. relative to early time point): ~50%
Stable (intact tracer) in blood, urine and liver homogenates [5]: > 99%
Compound: C[C@@H](NC(=O)[C@@H](CCCNC(=N)N)NC(=O)CN1CCN(CC(=O)O)CCN(CC(=O)O)CCN(CC(=O)O)CC1)C(=O)Nc1ccc(C(=O)NCCC[C@@H]2C(=O)N[C@@H](CCCNC(=N)N)C(=O)N[C@@H](Cc3ccc4ccccc4c3)C(=O)NCC(=O)N[C@H](Cc3ccc(O)c(I)c3)C(=O)N2C)cc1 [[^177Lu]DOTA-r-a-ABA-iodoCPCR4] [metal not drawn] (cyclo([2Nal]G[dTyr(3-I)][dNMeOrn]([4Abz-dA-dR-DOTA])R))

IC50 (murine CXCR4 (mCXCR4)): 61 ± 17 nM
Compound: [^natLu]DOTA-k-G-ABA-iodoCPCR4 (head to tail) [natLu-complex of entry 10]

IC50 (murine CXCR4 (mCXCR4)): 37 ± 3 nM
Compound: [^natLu]DOTA-r-G-ABA-iodoCPCR4 (head to tail) [natLu-complex of entry 12]
